In ChEMBL document CHEMBL3112568, “Synthesis, antifungal activities and molecular docking studies of novel 2-(2,4-difluorophenyl)-2-hydroxy-3-(1H-1,2,4-triazol-1-yl)propyl dithiocarbamates” (2014):
In brackets after ≈: the same amount, converted by molar mass.

Columns and labels:
Format in all cases: functional
Nannizzia gypsea = assay: Antifungal activity against Microsporum gypseum by micro-broth dilution method
Candida parapsilosis = assay: Antifungal activity against Candida parapsilosis by micro-broth dilution method; conditions: Lodderomyces parapsilosis
Trichophyton rubrum = assay: Antifungal activity against Trichophyton rubrum by micro-broth dilution method
Cryptococcus neoformans = assay: Antifungal activity against Cryptococcus neoformans after 72 hrs by micro-broth dilution method
Aspergillus fumigatus = assay: Antifungal activity against Aspergillus fumigatus by micro-broth dilution method
Candida albicans [1] = assay: Antifungal activity against Candida albicans SC5314 after 24 hrs by micro-broth dilution method; conditions: SC5314, 24 h
Nakaseomyces glabratus = assay: Antifungal activity against Candida glabrata by micro-broth dilution method
Candida albicans [2] = assay: Antifungal activity against Candida albicans Y0109 after 24 hrs by micro-broth dilution method; conditions: Y0109, 24 h

| SMILES | MIC80 (Nannizzia gypsea) | MIC80 (Candida parapsilosis) | MIC80 (Trichophyton rubrum) | MIC80 (Cryptococcus neoformans) | MIC80 (Aspergillus fumigatus) | MIC80 (Candida albicans [1]) | MIC80 (Nakaseomyces glabratus) | MIC80 (Candida albicans [2]) |
| --- | --- | --- | --- | --- | --- | --- | --- | --- |
| CCN(CC)C(=S)SCC(O)(Cn1cncn1)c1ccc(F)cc1F (racemic) | 4 µg/mL (≈ 10.3 µM) | 0.5 µg/mL (≈ 1.29 µM) | 8 µg/mL (≈ 20.7 µM) | 0.25 µg/mL (≈ 0.647 µM) | 8 µg/mL (≈ 20.7 µM) | ≤ 0.125 µg/mL | ≤ 0.125 µg/mL | ≤ 0.125 µg/mL |
| OC(CSC(=S)NCc1ccccc1)(Cn1cncn1)c1ccc(F)cc1F (racemic) | 32 µg/mL (≈ 76.1 µM) | 8 µg/mL (≈ 19 µM) | 0.5 µg/mL (≈ 1.19 µM) | 16 µg/mL (≈ 38 µM) | > 64 µg/mL | 0.5 µg/mL (≈ 1.19 µM) | 8 µg/mL (≈ 19 µM) | 1 µg/mL (≈ 2.38 µM) |
| CN(C)C(=S)SCC(O)(Cn1cncn1)c1ccc(F)cc1F (racemic) | 2 µg/mL (≈ 5.58 µM) | 0.5 µg/mL (≈ 1.39 µM) | 0.5 µg/mL (≈ 1.39 µM) | 0.5 µg/mL (≈ 1.39 µM) | 8 µg/mL (≈ 22.3 µM) | ≤ 0.125 µg/mL | ≤ 0.125 µg/mL | ≤ 0.125 µg/mL |
| CN(C(=S)SCC(O)(Cn1cncn1)c1ccc(F)cc1F)c1ccccc1 (racemic) | 2 µg/mL (≈ 4.76 µM) | 32 µg/mL (≈ 76.1 µM) | 2 µg/mL (≈ 4.76 µM) | 1 µg/mL (≈ 2.38 µM) | 64 µg/mL (≈ 152 µM) | 0.5 µg/mL (≈ 1.19 µM) | 0.5 µg/mL (≈ 1.19 µM) | 0.25 µg/mL (≈ 0.595 µM) |
| CN(Cc1ccccc1)C(=S)SCC(O)(Cn1cncn1)c1ccc(F)cc1F (racemic) | > 64 µg/mL | 0.5 µg/mL (≈ 1.15 µM) | > 64 µg/mL | 1 µg/mL (≈ 2.3 µM) | 16 µg/mL (≈ 36.8 µM) | 0.25 µg/mL (≈ 0.575 µM) | 0.25 µg/mL (≈ 0.575 µM) | 0.25 µg/mL (≈ 0.575 µM) |
| CN(CCO)C(=S)SCC(O)(Cn1cncn1)c1ccc(F)cc1F (racemic) | 16 µg/mL (≈ 41.2 µM) | ≤ 0.125 µg/mL | 4 µg/mL (≈ 10.3 µM) | 8 µg/mL (≈ 20.6 µM) | > 64 µg/mL | ≤ 0.125 µg/mL | ≤ 0.125 µg/mL | ≤ 0.125 µg/mL |
| OCCN(Cc1ccccc1)C(=S)SCC(O)(Cn1cncn1)c1ccc(F)cc1F (racemic) | 32 µg/mL (≈ 68.9 µM) | 0.25 µg/mL (≈ 0.538 µM) | 2 µg/mL (≈ 4.31 µM) | 2 µg/mL (≈ 4.31 µM) | > 64 µg/mL | 0.25 µg/mL (≈ 0.538 µM) | ≤ 0.125 µg/mL | 0.25 µg/mL (≈ 0.538 µM) |
| OCCN(CCO)C(=S)SCC(O)(Cn1cncn1)c1ccc(F)cc1F (racemic) | 1 µg/mL (≈ 2.39 µM) | > 64 µg/mL | 1 µg/mL (≈ 2.39 µM) | 64 µg/mL (≈ 153 µM) | > 64 µg/mL | 8 µg/mL (≈ 19.1 µM) | 0.25 µg/mL (≈ 0.597 µM) | 8 µg/mL (≈ 19.1 µM) |
| OC(CSC(=S)N1CCN(Cc2ccccc2)CC1)(Cn1cncn1)c1ccc(F)cc1F (racemic) | 2 µg/mL (≈ 4.08 µM) | 1 µg/mL (≈ 2.04 µM) | 2 µg/mL (≈ 4.08 µM) | 0.25 µg/mL (≈ 0.511 µM) | 4 µg/mL (≈ 8.17 µM) | ≤ 0.125 µg/mL | 0.25 µg/mL (≈ 0.511 µM) | ≤ 0.125 µg/mL |
| OC(CSC(=S)N1CCN(c2ccccc2F)CC1)(Cn1cncn1)c1ccc(F)cc1F (racemic) | > 64 µg/mL | 2 µg/mL (≈ 4.05 µM) | 1 µg/mL (≈ 2.03 µM) | 0.5 µg/mL (≈ 1.01 µM) | > 64 µg/mL | 0.5 µg/mL (≈ 1.01 µM) | 0.5 µg/mL (≈ 1.01 µM) | 0.5 µg/mL (≈ 1.01 µM) |
| OC(CSC(=S)N1CCN(c2cccc(Cl)c2Cl)CC1)(Cn1cncn1)c1ccc(F)cc1F (racemic) | 16 µg/mL (≈ 29.4 µM) | 1 µg/mL (≈ 1.84 µM) | 0.5 µg/mL (≈ 0.918 µM) | 0.5 µg/mL (≈ 0.918 µM) | > 64 µg/mL | 0.5 µg/mL (≈ 0.918 µM) | 0.5 µg/mL (≈ 0.918 µM) | ≤ 0.125 µg/mL |
| COc1cccc(N2CCN(C(=S)SCC(O)(Cn3cncn3)c3ccc(F)cc3F)CC2)c1 (racemic) | 4 µg/mL (≈ 7.91 µM) | 0.5 µg/mL (≈ 0.989 µM) | 1 µg/mL (≈ 1.98 µM) | 0.25 µg/mL (≈ 0.494 µM) | 16 µg/mL (≈ 31.6 µM) | ≤ 0.125 µg/mL | 0.25 µg/mL (≈ 0.494 µM) | ≤ 0.125 µg/mL |
| COc1ccc(N2CCN(C(=S)SCC(O)(Cn3cncn3)c3ccc(F)cc3F)CC2)cc1 (racemic) | 2 µg/mL (≈ 3.96 µM) | 0.25 µg/mL (≈ 0.494 µM) | 1 µg/mL (≈ 1.98 µM) | 0.25 µg/mL (≈ 0.494 µM) | 8 µg/mL (≈ 15.8 µM) | ≤ 0.125 µg/mL | ≤ 0.125 µg/mL | ≤ 0.125 µg/mL |
| OC(CSC(=S)N1CCN(c2cccc(C(F)(F)F)c2)CC1)(Cn1cncn1)c1ccc(F)cc1F (racemic) | 2 µg/mL (≈ 3.68 µM) | 0.5 µg/mL (≈ 0.92 µM) | 1 µg/mL (≈ 1.84 µM) | 0.25 µg/mL (≈ 0.46 µM) | 8 µg/mL (≈ 14.7 µM) | ≤ 0.125 µg/mL | 0.25 µg/mL (≈ 0.46 µM) | ≤ 0.125 µg/mL |

Second part, the molecule after the results:

| MIC80 (Nannizzia gypsea) | MIC80 (Candida parapsilosis) | MIC80 (Trichophyton rubrum) | MIC80 (Cryptococcus neoformans) | MIC80 (Aspergillus fumigatus) | MIC80 (Candida albicans [1]) | MIC80 (Nakaseomyces glabratus) | MIC80 (Candida albicans [2]) | SMILES |
| --- | --- | --- | --- | --- | --- | --- | --- | --- |
| 8 µg/mL (≈ 20.1 µM) | 0.5 µg/mL (≈ 1.25 µM) | 8 µg/mL (≈ 20.1 µM) | ≤ 0.125 µg/mL | 16 µg/mL (≈ 40.2 µM) | ≤ 0.125 µg/mL | ≤ 0.125 µg/mL | ≤ 0.125 µg/mL | OC(CSC(=S)N1CCCCC1)(Cn1cncn1)c1ccc(F)cc1F (racemic) |
| 8 µg/mL (≈ 20 µM) | 0.25 µg/mL (≈ 0.624 µM) | 8 µg/mL (≈ 20 µM) | 0.25 µg/mL (≈ 0.624 µM) | 16 µg/mL (≈ 40 µM) | ≤ 0.125 µg/mL | ≤ 0.125 µg/mL | ≤ 0.125 µg/mL | OC(CSC(=S)N1CCOCC1)(Cn1cncn1)c1ccc(F)cc1F (racemic) |
| 4 µg/mL (≈ 9.67 µM) | 0.25 µg/mL (≈ 0.605 µM) | 1 µg/mL (≈ 2.42 µM) | 0.25 µg/mL (≈ 0.605 µM) | 8 µg/mL (≈ 19.3 µM) | ≤ 0.125 µg/mL | ≤ 0.125 µg/mL | ≤ 0.125 µg/mL | CN1CCN(C(=S)SCC(O)(Cn2cncn2)c2ccc(F)cc2F)CC1 (racemic) |
| 32 µg/mL (≈ 77.6 µM) | 1 µg/mL (≈ 2.42 µM) | 2 µg/mL (≈ 4.85 µM) | 2 µg/mL (≈ 4.85 µM) | 8 µg/mL (≈ 19.4 µM) | ≤ 0.125 µg/mL | ≤ 0.125 µg/mL | ≤ 0.125 µg/mL | O=C1CCN(C(=S)SCC(O)(Cn2cncn2)c2ccc(F)cc2F)CC1 (racemic) |
| 2 µg/mL (≈ 4.21 µM) | 0.25 µg/mL (≈ 0.526 µM) | 2 µg/mL (≈ 4.21 µM) | ≤ 0.125 µg/mL | 4 µg/mL (≈ 8.41 µM) | 0.25 µg/mL (≈ 0.526 µM) | ≤ 0.125 µg/mL | 0.25 µg/mL (≈ 0.526 µM) | OC(CSC(=S)N1CCN(c2ccccc2)CC1)(Cn1cncn1)c1ccc(F)cc1F (racemic) |
| 4 µg/mL (≈ 8.1 µM) | 0.5 µg/mL (≈ 1.01 µM) | 0.5 µg/mL (≈ 1.01 µM) | ≤ 0.125 µg/mL | 8 µg/mL (≈ 16.2 µM) | ≤ 0.125 µg/mL | 0.25 µg/mL (≈ 0.507 µM) | ≤ 0.125 µg/mL | OC(CSC(=S)N1CCN(c2cccc(F)c2)CC1)(Cn1cncn1)c1ccc(F)cc1F (racemic) |
| 2 µg/mL (≈ 4.05 µM) | 0.25 µg/mL (≈ 0.507 µM) | 1 µg/mL (≈ 2.03 µM) | ≤ 0.125 µg/mL | 16 µg/mL (≈ 32.4 µM) | 0.25 µg/mL (≈ 0.507 µM) | 0.25 µg/mL (≈ 0.507 µM) | ≤ 0.125 µg/mL | OC(CSC(=S)N1CCN(c2ccc(F)cc2)CC1)(Cn1cncn1)c1ccc(F)cc1F (racemic) |
| 2 µg/mL (≈ 3.92 µM) | 0.5 µg/mL (≈ 0.98 µM) | 1 µg/mL (≈ 1.96 µM) | ≤ 0.125 µg/mL | 8 µg/mL (≈ 15.7 µM) | ≤ 0.125 µg/mL | 0.5 µg/mL (≈ 0.98 µM) | ≤ 0.125 µg/mL | OC(CSC(=S)N1CCN(c2ccccc2Cl)CC1)(Cn1cncn1)c1ccc(F)cc1F (racemic) |
| 4 µg/mL (≈ 7.84 µM) | 0.5 µg/mL (≈ 0.98 µM) | 1 µg/mL (≈ 1.96 µM) | ≤ 0.125 µg/mL | 16 µg/mL (≈ 31.4 µM) | ≤ 0.125 µg/mL | 0.25 µg/mL (≈ 0.49 µM) | ≤ 0.125 µg/mL | OC(CSC(=S)N1CCN(c2ccc(Cl)cc2)CC1)(Cn1cncn1)c1ccc(F)cc1F (racemic) |
| 16 µg/mL (≈ 32.7 µM) | 1 µg/mL (≈ 2.04 µM) | 2 µg/mL (≈ 4.08 µM) | 0.5 µg/mL (≈ 1.02 µM) | > 64 µg/mL | 0.25 µg/mL (≈ 0.511 µM) | 0.5 µg/mL (≈ 1.02 µM) | ≤ 0.125 µg/mL | Cc1ccccc1N1CCN(C(=S)SCC(O)(Cn2cncn2)c2ccc(F)cc2F)CC1 (racemic) |
| > 64 µg/mL | 1 µg/mL (≈ 1.99 µM) | 1 µg/mL (≈ 1.99 µM) | 0.5 µg/mL (≈ 0.993 µM) | > 64 µg/mL | 0.5 µg/mL (≈ 0.993 µM) | 0.5 µg/mL (≈ 0.993 µM) | 0.5 µg/mL (≈ 0.993 µM) | Cc1cccc(N2CCN(C(=S)SCC(O)(Cn3cncn3)c3ccc(F)cc3F)CC2)c1C (racemic) |
